# Reference: patent publication US7488466B2, “Preparation for determining pyrimidine metabolic capacity” (Otsuka Pharmaceutical Co., Ltd., priority 2002, dated 2009)
# Assays:
# [1] = molecular target: T1, dihydropyrimidine dehydrogenase (DPD) (Canis lupus familiaris, UniProt A0A8I3P1X8); test: 13CO2 excretion in expired air after intravenous injection of 2-13C-labeled uracil preparation (Example 1); format: in vivo; conditions: FIG. 2
# T1 construct: Fasted beagle dogs were used as experimental animals; from tissue; host or cells: whole living beagle dogs (in vivo)
# T1 sequence (A0A8I3P1X8 1-1026): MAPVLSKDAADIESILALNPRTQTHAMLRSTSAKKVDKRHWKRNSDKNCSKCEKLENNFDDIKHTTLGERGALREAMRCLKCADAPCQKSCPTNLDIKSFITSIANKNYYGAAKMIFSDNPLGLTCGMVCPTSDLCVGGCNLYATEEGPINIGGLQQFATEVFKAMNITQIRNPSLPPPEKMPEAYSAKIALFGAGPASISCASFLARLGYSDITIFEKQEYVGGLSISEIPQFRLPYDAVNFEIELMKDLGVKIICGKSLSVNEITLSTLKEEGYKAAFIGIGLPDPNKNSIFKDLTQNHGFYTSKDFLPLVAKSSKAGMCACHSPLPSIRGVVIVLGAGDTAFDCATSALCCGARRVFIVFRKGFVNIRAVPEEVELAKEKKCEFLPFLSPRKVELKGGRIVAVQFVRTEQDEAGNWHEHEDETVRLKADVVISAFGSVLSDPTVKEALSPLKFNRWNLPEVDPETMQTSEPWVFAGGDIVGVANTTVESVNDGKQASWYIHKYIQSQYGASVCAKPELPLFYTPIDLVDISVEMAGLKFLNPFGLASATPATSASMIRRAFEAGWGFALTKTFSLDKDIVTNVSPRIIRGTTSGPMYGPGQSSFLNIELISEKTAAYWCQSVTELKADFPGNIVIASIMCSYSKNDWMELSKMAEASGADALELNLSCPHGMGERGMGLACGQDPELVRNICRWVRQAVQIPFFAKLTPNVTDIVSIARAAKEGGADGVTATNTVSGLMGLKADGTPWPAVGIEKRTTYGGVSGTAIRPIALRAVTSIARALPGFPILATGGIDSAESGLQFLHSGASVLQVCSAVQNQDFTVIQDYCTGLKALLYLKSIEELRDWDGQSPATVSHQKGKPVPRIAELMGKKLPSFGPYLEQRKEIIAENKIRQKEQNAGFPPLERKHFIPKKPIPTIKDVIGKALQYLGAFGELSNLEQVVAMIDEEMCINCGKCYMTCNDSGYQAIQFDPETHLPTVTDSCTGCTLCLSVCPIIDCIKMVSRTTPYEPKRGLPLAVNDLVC
# Protocol: Uracil having […] carbon at the 2-position (2-^13C-labeled uracil) was used as an isotope-labeled pyrimidine compound. A preparation for determining the pyrimidine metabolic capacity in the form of an intravenous injection comprising the 2-^13C-labeled uracil as an active ingredient was prepared and tested for usefulness for determining pyrimidine metabolic capacity.
# Uracil-2-^13C (Cambridge Isotope Laboratory) (300 mg) was dissolved in 24 ml of 0.1N NaOH/saline solution (measured out from 200 ml of 0.1N NaOH/saline solution prepared by diluting 2 ml of 10N sodium hydroxide solution with physiological saline), to give a preparation for determining the pyrimidine metabolic capacity in the form of an intravenous injection (containing 50 mg of uracil-2-^13C per 4 ml of the injection).
# (E)-5-(2-bromovinyl)-uracil (250 mg) and gum arabic (2.25 g) were mixed together, and the mixture was kneaded while adding a slight amount of water, to prepare 45 ml of a suspension (containing 83.3 mg of (E)-5-(2-bromovinyl)-uracil per 15 ml of the suspension).
# Fasted beagle dogs were used as experimental animals. […] The concentration of ^13C-labeled carbon dioxide excreted in the collected expired air was measured using a GC-MS analyzer (ABCA-G, Europa Scientific). […]
# [2] = system: dihydropyrimidine dehydrogenase (DPD); conditions: Cancer Research 46, 1094-1101, 1986; cited from earlier work
# [3] = molecular target: T1, dihydropyrimidine dehydrogenase (DPD); test: 13CO2 excretion in expired air after oral administration of 2-13C-labeled uracil preparation (Example 2); format: in vivo; conditions: FIG. 3
# Protocol: A preparation for determining the pyrimidine metabolic capacity in an oral form was prepared using the same 2-^13C-labeled uracil as used in Example 1 as an active ingredient, and tested for usefulness for measuring pyrimidine metabolic capacity.
# 2-^13C-labeled uracil (Cambridge Isotope Laboratory) (300 mg) was dissolved in 24 ml of 0.1N NaOH/saline solution (measured out from 200 ml of 0.1N NaOH/saline solution prepared by diluting 2 ml of 10N sodium hydroxide solution with physiological saline). Then, water was added to give 60 ml of a preparation for determining pyrimidine metabolic capacity in the form of an oral solution (containing 50 mg of 2-^13C-labeled uracil per 10 ml of the oral solution).
# Fasted beagle dogs were used as experimental animals. In Group 1 (n=3), the preparation prepared above in (1) was orally administered (50 mg/10 ml/body) (test group). […] The concentration of ^13C-labeled carbon dioxide excreted in the expired air was measured in the same manner as in Example 1, using a GC-MS analyzer (ABCA-G, Europa Scientific). […]
# [4] = Dose dependence of 13CO2 concentration in expired air after oral 2-13C-labeled uracil (Example 3); format: in vivo, beagle dogs; conditions: dose of 10 to 80 μmol/kg body weight, FIGS. 5 and 6
# Protocol: In 50 ml portions of 0.05N sodium hydroxide, 56.5 mg, 113.1 mg, 226.2 mg, and 452.3 mg of 2-^13C-labeled uracil (Cambridge Isotope Laboratory) were dissolved separately, to prepare solutions with concentrations of 10 μmol/ml, 20 μmol/ml, 40 μmol/ml, and 80 μmol/ml, respectively. The solutions were forcibly administered orally to fasted male beagle dogs (n=3) using oral tubes for dogs, in an amount of 1 ml/kg body weight (dose: […]), and thereafter water was forcibly administered orally in an amount of 2 ml/kg body weight. The expired air was collected before administration, and after 15, 30, 45, 60, 75, 90, 105, 120, 135, 150, 180, 210, and 240 minutes after administration. Then, the ^13C-labeled carbon dioxide concentration in the expired air was measured, and pharmacokinetic parameters (the area under the curve (AUC) and maximum ^13C-labled carbon dioxide concentration (Cmax)) were calculated from the obtained transition curve of the ^13C-labeled carbon dioxide concentration in the expired air.
# [5] = system: pyrimidine metabolic pathway; conditions: administered to the body; Cancer (Phila), 68, 499-501, 1991; cited from earlier work
compound,measurement,setting,value
O=c1[nH]cc(/C=C/Br)c(=O)[nH]1 [(E)-5-(2-bromovinyl)-uracil],excretion of 13CO2 in the expired air after DPD inhibitor pretreatment,"[1]; DPD inhibitor 83.3 mg/body orally 1 hour before intravenous 2-13C-labeled uracil 50 mg/body, compared with test group",markedly lower excretion
same,DPD inhibitor activity,[2],known as a dihydropyrimidine dehydrogenase (DPD) inhibitor
same,excretion of 13CO2 in the expired air after DPD inhibitor pretreatment,"[3]; DPD inhibitor 83.3 mg/15 ml/body orally 1 hour before oral 2-13C-labeled uracil 50 mg/10 ml/body, compared with test group",markedly reduced
O=c1cc[nH][13c](=O)[nH]1 [2-^13C-labeled uracil],metabolism and excretion in the expired air as 13CO2,"[1]; test group, fasted beagle dogs, intravenous injection 50 mg/body, expired air 0-240 min",metabolized and excreted in the expired air as ^13CO2
same,metabolism and excretion in the expired air as 13CO2,"[3]; test group, fasted beagle dogs, oral 50 mg/10 ml/body, expired air 0-240 min",metabolized and excreted in the expired air as ^13CO2
same,excretion kinetics in the expired air (AUC and Cmax versus dose),[4],has linearity
"O=c1[nH]cc(F)c(=O)[nH]1 [5-FU, 5-fluorouracil]",share of administered 5-FU degraded in the pyrimidine metabolic pathway,[5],about 80%
